Reference: ChEMBL document CHEMBL1201862, “PubChem BioAssay data set” (2004)
Calls of active or inactive are those of the source.

Assays:
[1] = target: Beta-2 adrenergic receptor (Homo sapiens, UniProt P07550); experiment: ADRB2 activation measured by internalization – cell-based, FAP fluorogen, flow cytometry, cherry pick 1, dose response (AID 588763); assay type: functional
[2] = target: Cytochrome P450 2D6 (Homo sapiens, UniProt P10635);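 further: CYP2D6 member of a cytochrome P450 panel assay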
[3] = target: T1, fMet-Leu-Phe receptor (Homo sapiens, UniProt P21462); experiment: formyl peptide receptor binders – dose response (AID 519); assay type: functional
T1 sequence (P21462 whole entry): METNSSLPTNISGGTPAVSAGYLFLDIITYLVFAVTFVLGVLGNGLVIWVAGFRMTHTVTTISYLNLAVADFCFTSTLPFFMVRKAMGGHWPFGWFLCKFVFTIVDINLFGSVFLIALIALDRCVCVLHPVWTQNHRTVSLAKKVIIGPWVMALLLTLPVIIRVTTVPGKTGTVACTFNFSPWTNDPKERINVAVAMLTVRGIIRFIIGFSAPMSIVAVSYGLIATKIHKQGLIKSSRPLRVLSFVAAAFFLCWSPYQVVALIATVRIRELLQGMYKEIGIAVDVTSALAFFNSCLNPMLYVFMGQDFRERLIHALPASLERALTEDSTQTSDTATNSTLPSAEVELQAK

[4] = target: Cytochrome P450 2C19 (Homo sapiens, UniProt P33261); experiment: Cytochrome panel assay with activity outcomes. Panel member name: p450-cyp2c19 Compounds with AC50 equal or less than 10 uM are considered active; assay type: functional; details: read-out: AC50
[5] = target: Glucose-6-phosphate 1-dehydrogenase (Homo sapiens, UniProt P11413); experiment: inhibition of Homo sapiens G6PD, dose series – biochemical, fluorescence, selectivity assay for P. falciparum G6PD inhibitor project, dose response (AID 504792); assay type: functional
[6] = tested on: HeLa; experiment: ATP-based viability loss in HeLa cells – cell-based, CellTiter-Glo luminescence, cherry-pick samples, cytotoxicity control for MITF activator project, dose response (AID 540259); assay type: functional; details: Homo sapiens
[7] = target: T2, Apoptotic protease-activating factor 1 (Homo sapiens, UniProt O14727); assay type: functional
T2 sequence (O14727 whole entry): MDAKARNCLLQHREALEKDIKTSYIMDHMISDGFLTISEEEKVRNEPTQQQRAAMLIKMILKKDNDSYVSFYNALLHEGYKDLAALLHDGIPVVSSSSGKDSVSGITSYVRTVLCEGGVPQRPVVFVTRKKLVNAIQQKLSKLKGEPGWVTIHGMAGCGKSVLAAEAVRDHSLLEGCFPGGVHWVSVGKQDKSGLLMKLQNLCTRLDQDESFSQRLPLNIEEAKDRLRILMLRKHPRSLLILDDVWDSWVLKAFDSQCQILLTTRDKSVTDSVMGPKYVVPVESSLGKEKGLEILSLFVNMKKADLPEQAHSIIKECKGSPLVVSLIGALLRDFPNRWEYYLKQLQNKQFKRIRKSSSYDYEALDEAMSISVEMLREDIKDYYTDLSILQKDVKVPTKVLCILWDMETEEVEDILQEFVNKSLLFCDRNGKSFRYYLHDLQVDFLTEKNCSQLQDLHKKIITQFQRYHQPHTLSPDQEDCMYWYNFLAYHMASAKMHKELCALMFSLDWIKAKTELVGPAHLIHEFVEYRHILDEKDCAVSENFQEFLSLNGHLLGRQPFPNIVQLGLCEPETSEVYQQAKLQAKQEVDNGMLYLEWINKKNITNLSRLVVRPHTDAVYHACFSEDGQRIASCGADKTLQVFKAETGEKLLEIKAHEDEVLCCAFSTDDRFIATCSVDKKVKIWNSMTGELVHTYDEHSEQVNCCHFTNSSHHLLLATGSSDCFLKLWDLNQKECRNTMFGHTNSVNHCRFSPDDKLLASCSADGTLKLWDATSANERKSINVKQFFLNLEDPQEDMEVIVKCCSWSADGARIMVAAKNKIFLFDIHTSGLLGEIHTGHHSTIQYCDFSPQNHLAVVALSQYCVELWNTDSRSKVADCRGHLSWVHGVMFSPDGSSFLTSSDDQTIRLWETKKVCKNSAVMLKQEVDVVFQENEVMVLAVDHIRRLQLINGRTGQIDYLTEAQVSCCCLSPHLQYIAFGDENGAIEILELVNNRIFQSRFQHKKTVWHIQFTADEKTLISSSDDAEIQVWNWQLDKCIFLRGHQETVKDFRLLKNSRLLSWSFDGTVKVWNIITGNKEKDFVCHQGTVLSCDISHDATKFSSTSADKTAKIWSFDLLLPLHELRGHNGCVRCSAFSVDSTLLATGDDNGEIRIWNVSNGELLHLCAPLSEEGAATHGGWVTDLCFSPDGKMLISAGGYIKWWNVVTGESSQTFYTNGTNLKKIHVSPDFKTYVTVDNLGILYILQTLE

[8] = tested on: INS1; experiment: INS-1E survival protection against cytokine death – cell-based, luminescence, retest, dose response (AID 449756); assay type: functional; details: Rattus norvegicus;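 further: cell death triggered by IL-1 beta plus TNF-alpha plus IFN-gamma mixture; protective hits raise ATP signal compared with cytokine alone wells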
[9] = DRD fibroblast viability loss – cell-based, non-viral oncogenic, luminescence, dose response (AID 1934); assay type: functional; details: Homo sapiens
[10] = tested on: BJ; experiment: growth inhibition of engineered Ras-driven BJ cells – cell-based, alamar blue fluorescence, cherrypicked samples, dose response (AID 2631); assay type: functional; details: Homo sapiens;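 further: confirmatory dose-response assay in RAS-dependent BJ fibroblasts engineered with TERT, LT and ST, with cytotoxicity read by fluorescence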
[11] = tested on: BJ; experiment: cells; assay type: functional, cell-based; details: Homo sapiens
[12] = tested on: BJ; experiment: BJ-TERT fibroblast viability loss – cell-based, RAS-independent, luminescence, dose response (AID 1933); assay type: functional; details: Homo sapiens
[13] = tested on: BJ; experiment: BJ-TERT-LT-ST fibroblast viability loss – cell-based, RAS-independent, luminescence, dose response (AID 1935); assay type: functional; details: Homo sapiens;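 further: BJ fibroblasts immortalized with TERT plus LT and ST oncogenes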
[14] = Luminescence Cell-Based Dose Retest to Confirm Inhibitors of Cancer Stem Cells. [Related pubchem assays (depositor defined):AID2717, AID2721]; assay type: functional; details: Homo sapiens
[15] = target: T3, Tyrosine-protein kinase JAK3 (Homo sapiens, UniProt P52333); assay type: functional
T3 sequence (P52333 whole entry): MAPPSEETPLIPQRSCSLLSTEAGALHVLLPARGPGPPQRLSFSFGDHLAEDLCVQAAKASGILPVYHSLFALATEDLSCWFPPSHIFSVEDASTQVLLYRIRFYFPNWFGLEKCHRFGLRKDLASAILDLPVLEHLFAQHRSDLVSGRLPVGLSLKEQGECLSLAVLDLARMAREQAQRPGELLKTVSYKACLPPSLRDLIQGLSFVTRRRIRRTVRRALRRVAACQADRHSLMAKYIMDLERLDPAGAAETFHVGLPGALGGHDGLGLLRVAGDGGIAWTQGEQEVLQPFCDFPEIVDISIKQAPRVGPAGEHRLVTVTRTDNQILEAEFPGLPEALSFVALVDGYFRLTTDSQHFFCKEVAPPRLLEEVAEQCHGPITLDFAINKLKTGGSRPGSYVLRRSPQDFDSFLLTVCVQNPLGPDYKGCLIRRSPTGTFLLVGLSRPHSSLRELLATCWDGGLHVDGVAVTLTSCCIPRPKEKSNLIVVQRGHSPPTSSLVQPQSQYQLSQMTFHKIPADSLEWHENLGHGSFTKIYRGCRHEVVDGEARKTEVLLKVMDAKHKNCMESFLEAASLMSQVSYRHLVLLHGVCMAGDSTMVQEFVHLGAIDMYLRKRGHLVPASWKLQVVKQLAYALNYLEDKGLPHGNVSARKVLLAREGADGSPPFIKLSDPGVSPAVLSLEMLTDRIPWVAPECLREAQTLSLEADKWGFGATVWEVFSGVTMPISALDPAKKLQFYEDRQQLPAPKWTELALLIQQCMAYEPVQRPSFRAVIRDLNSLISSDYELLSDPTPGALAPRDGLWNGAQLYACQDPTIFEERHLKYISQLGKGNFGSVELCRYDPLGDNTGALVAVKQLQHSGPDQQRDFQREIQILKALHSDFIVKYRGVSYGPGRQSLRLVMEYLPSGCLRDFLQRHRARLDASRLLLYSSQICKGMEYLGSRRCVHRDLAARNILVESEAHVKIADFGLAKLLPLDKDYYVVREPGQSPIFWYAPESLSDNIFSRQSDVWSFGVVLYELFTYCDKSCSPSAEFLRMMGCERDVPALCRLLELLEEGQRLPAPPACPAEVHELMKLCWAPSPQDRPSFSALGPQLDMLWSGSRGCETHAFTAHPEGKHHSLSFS

[16] = target: T4, Testis-specific serine/threonine-protein kinase 2 (Homo sapiens, UniProt Q96PF2); assay type: functional;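 further: part of the Navigating the Kinome panel, target entry STK22B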
T4 sequence (Q96PF2 whole entry): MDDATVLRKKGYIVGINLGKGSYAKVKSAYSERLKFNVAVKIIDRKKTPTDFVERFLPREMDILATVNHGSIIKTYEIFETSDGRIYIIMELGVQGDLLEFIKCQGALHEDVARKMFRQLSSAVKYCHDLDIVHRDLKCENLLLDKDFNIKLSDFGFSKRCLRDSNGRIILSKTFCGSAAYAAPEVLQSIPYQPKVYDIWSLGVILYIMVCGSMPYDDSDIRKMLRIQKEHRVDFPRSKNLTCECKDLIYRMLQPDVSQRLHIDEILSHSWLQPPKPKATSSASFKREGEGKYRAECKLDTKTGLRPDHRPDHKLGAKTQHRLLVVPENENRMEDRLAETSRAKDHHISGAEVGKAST

[17] = target: T5, Polyadenylate-binding protein 1 (Homo sapiens, UniProt P11940); experiment: MLLE binding blockers, Cy5 peptide tracer – biochemical, fluorescence polarization, Cy5-PAM2 peptide, secondary, miRNA deadenylation inhibitor project, dose response (AID 602260); assay type: functional; details: read-out: IC50_Mean
[18] = target: T6, Rac GTPase-activating protein 1 (Homo sapiens, UniProt Q9H0H5); experiment: blockers of MgcRacGAP-driven Rac1 GTP hydrolysis – biochemical, ADP Hunter fluorescence, primary and confirmatory, confirmation (AID 624330); assay type: functional
T6 sequence (Q9H0H5 whole entry): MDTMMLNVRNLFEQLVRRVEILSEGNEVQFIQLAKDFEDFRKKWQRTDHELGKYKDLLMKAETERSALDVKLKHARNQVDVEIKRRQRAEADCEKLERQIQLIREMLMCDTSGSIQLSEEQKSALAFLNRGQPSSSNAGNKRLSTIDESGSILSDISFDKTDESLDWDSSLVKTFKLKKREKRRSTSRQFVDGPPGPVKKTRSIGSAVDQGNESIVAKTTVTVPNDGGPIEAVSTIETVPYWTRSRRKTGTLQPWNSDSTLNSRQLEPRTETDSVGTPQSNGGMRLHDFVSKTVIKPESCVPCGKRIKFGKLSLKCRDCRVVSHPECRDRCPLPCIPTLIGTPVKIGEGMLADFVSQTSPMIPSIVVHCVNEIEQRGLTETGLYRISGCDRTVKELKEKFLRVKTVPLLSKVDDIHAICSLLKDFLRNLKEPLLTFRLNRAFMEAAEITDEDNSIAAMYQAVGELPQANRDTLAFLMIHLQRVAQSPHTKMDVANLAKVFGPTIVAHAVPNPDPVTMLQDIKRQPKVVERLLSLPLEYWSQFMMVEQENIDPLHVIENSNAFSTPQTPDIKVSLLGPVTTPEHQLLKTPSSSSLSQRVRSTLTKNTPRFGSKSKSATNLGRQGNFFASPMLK

[19] = target: T7, Protein skinhead-1 (Caenorhabditis elegans, UniProt P34707); assay type: functional
T7 sequence (P34707 whole entry): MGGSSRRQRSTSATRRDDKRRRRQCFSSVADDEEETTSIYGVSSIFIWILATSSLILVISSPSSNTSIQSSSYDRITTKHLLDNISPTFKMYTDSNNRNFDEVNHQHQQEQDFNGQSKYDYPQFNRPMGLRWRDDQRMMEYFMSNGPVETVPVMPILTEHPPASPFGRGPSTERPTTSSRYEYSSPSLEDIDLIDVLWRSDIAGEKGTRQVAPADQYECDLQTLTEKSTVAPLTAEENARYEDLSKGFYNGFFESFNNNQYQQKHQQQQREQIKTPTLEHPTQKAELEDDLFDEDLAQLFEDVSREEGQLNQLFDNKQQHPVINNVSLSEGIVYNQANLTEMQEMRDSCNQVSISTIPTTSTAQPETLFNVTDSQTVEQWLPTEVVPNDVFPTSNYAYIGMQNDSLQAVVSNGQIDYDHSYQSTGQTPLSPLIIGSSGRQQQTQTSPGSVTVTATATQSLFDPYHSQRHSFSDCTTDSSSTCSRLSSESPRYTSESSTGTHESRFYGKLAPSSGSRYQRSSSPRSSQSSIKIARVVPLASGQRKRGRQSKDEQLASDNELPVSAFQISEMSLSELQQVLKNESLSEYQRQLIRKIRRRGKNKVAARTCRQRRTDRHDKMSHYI

[20] = target: T5, Polyadenylate-binding protein 1; experiment: MLLE domain peptide-binding blockers, IC50 – biochemical, fluorescence polarization, FITC-PAM2 peptide, dose response (AID 602259); assay type: functional; details: read-out: IC50_Mean

Sequence of Beta-2 adrenergic receptor (P07550 whole entry): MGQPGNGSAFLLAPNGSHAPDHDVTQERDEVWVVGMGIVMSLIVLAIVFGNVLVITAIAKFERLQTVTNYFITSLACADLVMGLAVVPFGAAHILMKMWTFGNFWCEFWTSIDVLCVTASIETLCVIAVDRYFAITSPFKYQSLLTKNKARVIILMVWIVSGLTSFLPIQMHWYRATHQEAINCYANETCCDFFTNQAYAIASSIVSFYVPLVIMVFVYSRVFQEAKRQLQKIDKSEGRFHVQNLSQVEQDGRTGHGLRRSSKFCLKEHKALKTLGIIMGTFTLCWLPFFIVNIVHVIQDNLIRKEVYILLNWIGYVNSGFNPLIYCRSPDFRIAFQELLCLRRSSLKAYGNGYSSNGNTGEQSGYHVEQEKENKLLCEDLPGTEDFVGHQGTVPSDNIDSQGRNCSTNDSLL
Sequence of Glucose-6-phosphate 1-dehydrogenase (P11413 whole entry): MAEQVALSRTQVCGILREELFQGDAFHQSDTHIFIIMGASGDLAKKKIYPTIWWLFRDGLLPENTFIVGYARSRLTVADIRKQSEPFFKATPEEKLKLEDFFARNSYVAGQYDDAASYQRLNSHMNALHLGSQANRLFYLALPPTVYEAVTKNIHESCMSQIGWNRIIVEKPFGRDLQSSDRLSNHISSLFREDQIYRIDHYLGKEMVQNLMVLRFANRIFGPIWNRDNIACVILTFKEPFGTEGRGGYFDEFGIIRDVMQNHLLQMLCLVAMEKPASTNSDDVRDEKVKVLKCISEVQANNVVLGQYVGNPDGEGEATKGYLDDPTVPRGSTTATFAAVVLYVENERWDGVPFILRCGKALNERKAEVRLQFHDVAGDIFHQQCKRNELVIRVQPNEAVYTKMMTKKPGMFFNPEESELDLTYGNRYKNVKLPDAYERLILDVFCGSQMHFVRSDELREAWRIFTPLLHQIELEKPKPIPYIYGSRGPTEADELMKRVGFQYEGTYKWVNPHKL
T5 sequence (P11940 whole entry): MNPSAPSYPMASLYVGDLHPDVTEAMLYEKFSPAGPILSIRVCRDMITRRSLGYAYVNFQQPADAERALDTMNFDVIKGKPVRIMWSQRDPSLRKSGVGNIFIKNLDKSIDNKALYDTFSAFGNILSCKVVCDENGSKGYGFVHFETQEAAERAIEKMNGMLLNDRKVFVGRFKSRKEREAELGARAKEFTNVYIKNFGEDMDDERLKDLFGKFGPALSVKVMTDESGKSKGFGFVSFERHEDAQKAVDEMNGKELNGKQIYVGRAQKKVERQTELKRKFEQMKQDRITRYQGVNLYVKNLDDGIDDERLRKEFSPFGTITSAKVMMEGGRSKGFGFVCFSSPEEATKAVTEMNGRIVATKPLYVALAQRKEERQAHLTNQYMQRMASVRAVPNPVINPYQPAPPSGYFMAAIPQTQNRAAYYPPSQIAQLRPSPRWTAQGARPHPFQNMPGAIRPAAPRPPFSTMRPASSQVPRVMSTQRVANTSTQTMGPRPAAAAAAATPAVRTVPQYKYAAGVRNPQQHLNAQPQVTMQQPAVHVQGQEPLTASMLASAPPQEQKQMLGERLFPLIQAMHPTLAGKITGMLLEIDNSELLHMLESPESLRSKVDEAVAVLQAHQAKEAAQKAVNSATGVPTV
Sequence of Cytochrome P450 2D6 (P10635 whole entry): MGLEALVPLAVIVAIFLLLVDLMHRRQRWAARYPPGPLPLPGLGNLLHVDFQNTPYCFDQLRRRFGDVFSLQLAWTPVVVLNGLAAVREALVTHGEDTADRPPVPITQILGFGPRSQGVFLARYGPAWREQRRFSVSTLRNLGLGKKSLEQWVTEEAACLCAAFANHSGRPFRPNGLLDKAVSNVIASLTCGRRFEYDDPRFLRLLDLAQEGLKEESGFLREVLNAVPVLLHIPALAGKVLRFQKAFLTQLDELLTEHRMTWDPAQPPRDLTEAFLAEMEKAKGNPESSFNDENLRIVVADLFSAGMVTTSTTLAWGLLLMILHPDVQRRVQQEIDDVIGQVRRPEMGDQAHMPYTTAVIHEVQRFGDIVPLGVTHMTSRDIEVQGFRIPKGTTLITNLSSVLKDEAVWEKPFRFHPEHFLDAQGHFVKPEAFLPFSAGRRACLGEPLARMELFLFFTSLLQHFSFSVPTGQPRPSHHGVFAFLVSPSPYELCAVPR
Sequence of Cytochrome P450 2C19 (P33261 whole entry): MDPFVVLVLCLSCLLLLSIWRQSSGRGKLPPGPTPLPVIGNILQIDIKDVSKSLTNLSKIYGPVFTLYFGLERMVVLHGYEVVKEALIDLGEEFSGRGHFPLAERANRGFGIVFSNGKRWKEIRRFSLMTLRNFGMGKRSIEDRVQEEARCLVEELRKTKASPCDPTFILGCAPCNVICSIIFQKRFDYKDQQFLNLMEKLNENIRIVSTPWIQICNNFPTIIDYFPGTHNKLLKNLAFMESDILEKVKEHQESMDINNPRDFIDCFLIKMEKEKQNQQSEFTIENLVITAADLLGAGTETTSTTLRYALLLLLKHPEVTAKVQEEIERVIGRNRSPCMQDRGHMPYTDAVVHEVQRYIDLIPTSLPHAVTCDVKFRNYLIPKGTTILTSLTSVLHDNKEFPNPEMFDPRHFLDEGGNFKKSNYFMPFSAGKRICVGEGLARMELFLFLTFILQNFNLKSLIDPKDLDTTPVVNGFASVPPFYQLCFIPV

Cc1ccc(O)c(NC(=O)c2cccc(NC(=O)c3ccco3)c2)c1
EC50 [1]: 0.132 µM (active)

O=C(O)C1CCCCC1C(=O)Nc1ccccc1Cl (stereo not drawn)
AC50 [2]: inconclusive | Ki [3]: > 66.7 µM (inactive) | AC50 [4]: 2.24 µM (inconclusive)

Cc1cc(C)n2nc(C(=O)Nc3cccc(S(=O)(=O)N(C)c4ccccc4)c3)nc2n1
EC50 [1]: 0.0342 µM (active)

CCc1ccccc1N(C)S(=O)(=O)c1ccc2ncc(C(=O)O)c(O)c2c1
EC50 [1]: 7.23 µM (active)

COc1ccc(/C=C/c2nc3ccccc3n2Cc2ccc(OC)c(OC)c2)cc1
IC50 [5]: > 80 µM (inactive) | AC50 [6]: 37 µM (active)

CCCCCn1cc[n+](C2=C([N-]S(=O)(=O)c3ccc(Cl)cc3)C(=O)c3ccccc3C2=O)c1
IC50 [7]: 30.2 µM (active) | AC50 [8]: 3.09 µM (active)

CN[C@H]1CCc2cc(OC)c(OC)c(OC)c2-c2ccc(N(C)CC(OC)OC)c(=O)cc21
EC50 [9]: 2.86 µM (active) | EC50 [10]: 0.578 µM (inconclusive) | EC50 [11]: 21.4 µM (active) | EC50 [12]: 3.42 µM (active) | EC50 [13]: 2.98 µM (inconclusive) | AC50 [14]: 1.86 µM (active)

Cc1[nH]nc2ccc(-c3cncc(OCC(N)Cc4ccccc4)c3)cc12 (stereo not drawn)
Ki [15]: > 1.58 µM (inactive) | Ki [16]: > 1.58 µM (inactive)

c1cc(CNc2ccc3c(c2)OCO3)ccn1
IC50 [17]: > 66 µM (inactive) | IC50 [5]: > 80 µM (inactive) | IC50 [18]: 63.8 µM (active) | IC50 [19]: > 100 µM (inactive) | IC50 [20]: 23.5 µM (inactive)
